{"source": "patent US10457677B2", "about": "(priority 2015, dated 2019)", "key": {"PI3K p110α/p85α (human)": {"biological_target": "PI3K p110α/p85α (human) (Homo sapiens (Human), UniProt P42336)", "sequence (P42336 whole entry)": "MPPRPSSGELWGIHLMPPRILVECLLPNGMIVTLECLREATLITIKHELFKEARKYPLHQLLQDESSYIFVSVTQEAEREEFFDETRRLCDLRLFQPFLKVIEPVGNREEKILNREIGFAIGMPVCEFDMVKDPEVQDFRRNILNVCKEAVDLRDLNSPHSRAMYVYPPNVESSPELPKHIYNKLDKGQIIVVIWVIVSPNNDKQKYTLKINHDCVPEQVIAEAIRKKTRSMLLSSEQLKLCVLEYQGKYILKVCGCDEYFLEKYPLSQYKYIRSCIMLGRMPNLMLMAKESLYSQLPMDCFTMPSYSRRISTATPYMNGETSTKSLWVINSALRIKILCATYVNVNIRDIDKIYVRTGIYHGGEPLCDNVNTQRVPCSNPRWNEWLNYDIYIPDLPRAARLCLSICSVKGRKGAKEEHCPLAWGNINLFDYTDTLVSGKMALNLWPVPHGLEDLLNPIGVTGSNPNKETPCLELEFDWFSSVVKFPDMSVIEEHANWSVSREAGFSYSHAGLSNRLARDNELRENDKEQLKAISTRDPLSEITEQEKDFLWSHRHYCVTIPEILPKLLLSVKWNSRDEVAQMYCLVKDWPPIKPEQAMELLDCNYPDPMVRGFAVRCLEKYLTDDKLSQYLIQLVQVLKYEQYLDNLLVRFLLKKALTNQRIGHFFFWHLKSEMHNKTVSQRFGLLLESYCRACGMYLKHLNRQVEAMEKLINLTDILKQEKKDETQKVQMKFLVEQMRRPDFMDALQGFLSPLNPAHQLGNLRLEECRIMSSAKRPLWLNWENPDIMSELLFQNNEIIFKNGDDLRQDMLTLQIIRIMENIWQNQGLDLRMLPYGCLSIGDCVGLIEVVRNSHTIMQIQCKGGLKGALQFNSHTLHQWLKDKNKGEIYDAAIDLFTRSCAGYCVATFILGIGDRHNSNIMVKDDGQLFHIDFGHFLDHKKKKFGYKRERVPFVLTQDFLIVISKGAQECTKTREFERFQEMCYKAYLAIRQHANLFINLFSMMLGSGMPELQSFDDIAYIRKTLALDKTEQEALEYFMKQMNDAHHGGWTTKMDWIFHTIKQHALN", "sequence (P27986 whole entry partner)": "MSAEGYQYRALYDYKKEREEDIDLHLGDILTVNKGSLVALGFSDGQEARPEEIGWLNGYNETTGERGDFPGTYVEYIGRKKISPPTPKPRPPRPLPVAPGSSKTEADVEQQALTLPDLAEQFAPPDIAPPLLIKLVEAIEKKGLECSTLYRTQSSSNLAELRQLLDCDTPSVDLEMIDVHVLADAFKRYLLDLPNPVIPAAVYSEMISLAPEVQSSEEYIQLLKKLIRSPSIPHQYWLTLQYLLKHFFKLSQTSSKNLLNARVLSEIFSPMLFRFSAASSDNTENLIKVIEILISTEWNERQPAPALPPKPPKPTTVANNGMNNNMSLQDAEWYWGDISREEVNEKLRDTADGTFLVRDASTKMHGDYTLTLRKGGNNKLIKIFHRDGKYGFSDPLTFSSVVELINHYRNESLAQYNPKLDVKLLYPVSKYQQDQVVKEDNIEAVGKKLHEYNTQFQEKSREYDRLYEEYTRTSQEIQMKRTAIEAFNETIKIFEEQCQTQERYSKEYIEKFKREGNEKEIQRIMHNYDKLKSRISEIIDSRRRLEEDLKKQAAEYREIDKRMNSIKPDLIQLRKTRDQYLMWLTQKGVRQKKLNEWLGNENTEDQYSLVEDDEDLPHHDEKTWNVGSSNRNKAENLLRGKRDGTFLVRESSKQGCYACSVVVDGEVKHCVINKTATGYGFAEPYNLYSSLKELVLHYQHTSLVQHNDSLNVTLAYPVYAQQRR", "assay": "PI3K p110α/p85α (human), non-radioactive assay (HTRF)", "type": "biochemical", "conditions": "read-out: IC50 (PI3Kalpha)"}, "PI3K p110β/p85α (human)": {"biological_target": "PI3K p110β/p85α (human) (Homo sapiens (Human), UniProt P42338)", "sequence (P42338 whole entry, the tested form may be a part)": "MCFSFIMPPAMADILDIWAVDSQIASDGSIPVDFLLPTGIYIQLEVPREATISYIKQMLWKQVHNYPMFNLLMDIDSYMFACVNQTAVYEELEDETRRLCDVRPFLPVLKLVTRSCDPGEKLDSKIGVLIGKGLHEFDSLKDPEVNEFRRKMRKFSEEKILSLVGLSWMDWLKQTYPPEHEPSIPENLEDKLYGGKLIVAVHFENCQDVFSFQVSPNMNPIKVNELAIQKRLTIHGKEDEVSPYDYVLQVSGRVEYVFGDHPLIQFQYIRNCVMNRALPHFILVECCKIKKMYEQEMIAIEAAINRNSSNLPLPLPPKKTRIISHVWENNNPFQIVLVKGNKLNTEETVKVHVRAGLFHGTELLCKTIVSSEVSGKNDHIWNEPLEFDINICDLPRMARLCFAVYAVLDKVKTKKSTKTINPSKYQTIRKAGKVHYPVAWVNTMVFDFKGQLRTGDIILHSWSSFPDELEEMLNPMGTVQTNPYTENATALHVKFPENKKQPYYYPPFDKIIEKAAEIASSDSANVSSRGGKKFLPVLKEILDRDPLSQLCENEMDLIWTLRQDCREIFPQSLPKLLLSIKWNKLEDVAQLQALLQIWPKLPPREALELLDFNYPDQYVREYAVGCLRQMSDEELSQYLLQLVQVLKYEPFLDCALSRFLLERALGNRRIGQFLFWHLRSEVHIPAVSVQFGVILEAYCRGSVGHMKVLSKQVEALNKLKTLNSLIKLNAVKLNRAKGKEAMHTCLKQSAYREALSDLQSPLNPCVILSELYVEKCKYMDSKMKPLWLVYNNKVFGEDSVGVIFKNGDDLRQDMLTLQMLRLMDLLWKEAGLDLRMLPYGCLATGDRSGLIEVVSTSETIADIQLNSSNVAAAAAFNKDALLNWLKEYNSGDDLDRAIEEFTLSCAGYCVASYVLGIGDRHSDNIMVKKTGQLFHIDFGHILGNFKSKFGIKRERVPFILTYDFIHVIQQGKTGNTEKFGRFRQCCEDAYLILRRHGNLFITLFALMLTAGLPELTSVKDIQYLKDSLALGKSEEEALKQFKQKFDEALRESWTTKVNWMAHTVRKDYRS", "sequence (P27986 whole entry partner, the tested form may be a part)": "as the sequence (P27986 whole entry partner) above", "assay": "PI3K p110β/p85α (human), non-radioactive assay (HTRF)", "type": "biochemical", "method_in_brief": "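Human p110β/p85α incubated with 10 μM phosphatidylinositol 4,5-bisphosphate and MgATP for 30 min at room temperature, stopped with EDTA plus biotinylated PIP3. HTRF detection used a Eu-anti-GST antibody, GST-GRP1 PH domain and streptavidin-APC, with signal taken as 10000×(Em665nm/Em620nm).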"}, "PI3K (p120γ) (human)": {"biological_target": "PI3K (p120γ) (human) (Homo sapiens (Human), UniProt P48736)", "sequence (P48736 whole entry, the tested form may be a part)": "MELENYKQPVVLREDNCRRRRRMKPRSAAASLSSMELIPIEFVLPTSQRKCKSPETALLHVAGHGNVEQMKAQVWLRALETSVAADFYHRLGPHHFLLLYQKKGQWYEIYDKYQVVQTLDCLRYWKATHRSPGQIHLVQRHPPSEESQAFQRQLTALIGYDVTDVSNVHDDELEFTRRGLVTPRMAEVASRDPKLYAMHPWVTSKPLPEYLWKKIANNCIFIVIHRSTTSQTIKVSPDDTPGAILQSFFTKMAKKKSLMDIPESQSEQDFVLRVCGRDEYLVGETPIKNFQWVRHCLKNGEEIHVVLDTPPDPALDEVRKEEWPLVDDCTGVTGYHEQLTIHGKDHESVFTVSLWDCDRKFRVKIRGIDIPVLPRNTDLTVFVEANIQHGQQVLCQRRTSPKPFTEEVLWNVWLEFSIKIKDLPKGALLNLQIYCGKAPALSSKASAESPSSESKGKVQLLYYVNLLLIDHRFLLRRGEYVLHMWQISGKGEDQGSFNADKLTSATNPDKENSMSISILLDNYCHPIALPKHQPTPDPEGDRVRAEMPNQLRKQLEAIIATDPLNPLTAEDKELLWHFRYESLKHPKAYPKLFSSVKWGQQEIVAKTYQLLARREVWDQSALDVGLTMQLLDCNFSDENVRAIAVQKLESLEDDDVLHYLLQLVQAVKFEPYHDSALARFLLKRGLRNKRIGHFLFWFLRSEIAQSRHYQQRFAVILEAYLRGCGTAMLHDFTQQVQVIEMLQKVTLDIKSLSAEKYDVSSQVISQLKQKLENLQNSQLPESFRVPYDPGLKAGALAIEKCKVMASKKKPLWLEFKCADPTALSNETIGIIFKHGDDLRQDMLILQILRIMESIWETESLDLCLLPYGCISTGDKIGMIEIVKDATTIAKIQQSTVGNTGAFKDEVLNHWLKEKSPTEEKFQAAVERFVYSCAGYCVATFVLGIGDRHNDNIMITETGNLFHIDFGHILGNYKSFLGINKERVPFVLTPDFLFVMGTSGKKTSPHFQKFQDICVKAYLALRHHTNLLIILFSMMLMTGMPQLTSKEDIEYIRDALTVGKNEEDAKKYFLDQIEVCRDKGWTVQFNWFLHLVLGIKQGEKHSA", "assay": "PI3K (p120γ) (human), non-radioactive assay (HTRF)", "type": "biochemical", "conditions": "read-out: IC50 (PI3Kgamma)", "method_in_brief": "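Enzyme was run with 10 μM phosphatidylinositol 4,5-bisphosphate, starting the reaction with MgATP at an unspecified level, for 30 min at room temperature. The stop used EDTA plus biotinylated PIP3, and detection used Eu-anti-GST, GST-GRP1 PH domain and streptavidin-APC. Signal was taken as HTRF = 10000×(Em665nm/Em620nm).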"}, "[1]": {"biological_target": "purified human recombinant ATM (ataxia telangiectasia mutated), full length (Homo sapiens (Human), UniProt Q13315)", "assay": "ATM kinase assay - determination of ATM inhibition (IC50 ATM), TR-FRET", "type": "biochemical", "method_in_brief": "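Full-length enzyme, expressed in a mammalian cell line, pre-incubated 15 min with inhibitor in 25 mM HEPES pH 8.0, 10 mM Mg(CH3COO)2, 1 mM MnCl2, 0,1% BSA, 0,01% Brij 35, 5 mM DTT. Full-length cmyc-p53 (Sf21-expressed) and ATP then added, 30-35 min at 22° C. EDTA stop; p53 S15 phosphorylation read by TR-FRET antibodies.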"}, "[2]": {"test_system": "phosphorylation of CHK2 (phospho-Thr68) in HCT116 cells", "assay": "Cellular pCHK2 assay: bleomycin-induced phosphorylation of CHK2 (phospho-Thr68), immunofluorescence high-content analysis", "type": "cell-based, human", "conditions": "Homo sapiens, HCT-116, 4 h, read-out: IC50 (pCHK2)", "method_in_brief": "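HCT116 cells in DMEM with 10% FCS, incubated overnight at 37° C, then given compounds (1 nM to 30 μM, 0.5% DMSO) together with 10 μM bleomycin. Phospho-Thr68 CHK2 immunostained and imaged by high-content imager; nuclei with pCHK2 above background counted, cell count from propidium iodide DNA stain.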"}, "mTOR (human)": {"biological_target": "mTOR (human) (Homo sapiens (Human), UniProt P42345)", "assay": "mTOR (human) kinase assay, [γ-33P-ATP] filter assay", "type": "biochemical", "method_in_brief": "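Radiometric filter assay: enzyme in 50 mM HEPES pH 7.5, 1 mM EGTA, 0.01% Tween 20, 3 mM MnCl2, 2 mg/ml substrate with [γ-33P-ATP], started with MgATP. Incubated 40 min at room temperature, stopped with 3% phosphoric acid; incorporation measured on P30 filtermat by scintillation counting.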"}, "PI3K p110δ/p85α (human)": {"biological_target": "PI3K p110δ/p85α (human) (Homo sapiens (Human), UniProt O00329)", "sequence (O00329 whole entry)": "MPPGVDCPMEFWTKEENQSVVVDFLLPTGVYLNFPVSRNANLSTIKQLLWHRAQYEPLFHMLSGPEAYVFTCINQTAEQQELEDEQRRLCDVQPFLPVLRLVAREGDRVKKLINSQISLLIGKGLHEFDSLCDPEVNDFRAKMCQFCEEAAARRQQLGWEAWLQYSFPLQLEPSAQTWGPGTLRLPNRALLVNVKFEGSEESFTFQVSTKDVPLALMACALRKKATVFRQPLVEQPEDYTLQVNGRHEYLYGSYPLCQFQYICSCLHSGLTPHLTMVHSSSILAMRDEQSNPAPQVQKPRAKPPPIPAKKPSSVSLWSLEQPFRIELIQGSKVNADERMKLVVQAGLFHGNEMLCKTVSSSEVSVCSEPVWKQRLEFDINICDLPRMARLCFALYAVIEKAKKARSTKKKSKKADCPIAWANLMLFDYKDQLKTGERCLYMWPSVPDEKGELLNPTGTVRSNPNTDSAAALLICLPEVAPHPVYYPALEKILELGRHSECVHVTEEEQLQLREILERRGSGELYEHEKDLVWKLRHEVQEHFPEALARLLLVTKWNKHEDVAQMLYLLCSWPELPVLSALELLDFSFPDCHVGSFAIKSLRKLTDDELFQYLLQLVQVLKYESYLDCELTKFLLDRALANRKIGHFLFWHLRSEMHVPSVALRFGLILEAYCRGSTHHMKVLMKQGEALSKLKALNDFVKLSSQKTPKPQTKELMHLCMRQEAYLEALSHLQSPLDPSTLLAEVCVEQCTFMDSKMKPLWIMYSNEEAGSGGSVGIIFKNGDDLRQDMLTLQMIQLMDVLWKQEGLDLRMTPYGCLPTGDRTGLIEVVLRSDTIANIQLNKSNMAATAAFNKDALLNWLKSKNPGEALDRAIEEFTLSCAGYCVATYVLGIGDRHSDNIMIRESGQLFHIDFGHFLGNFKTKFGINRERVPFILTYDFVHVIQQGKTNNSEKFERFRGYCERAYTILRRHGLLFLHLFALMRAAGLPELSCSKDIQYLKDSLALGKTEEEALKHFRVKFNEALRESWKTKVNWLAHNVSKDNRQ", "sequence (P27986 whole entry partner)": "as the sequence (P27986 whole entry partner) above", "assay": "PI3K p110δ/p85α (human), non-radioactive assay (HTRF)", "type": "biochemical", "conditions": "read-out: IC50 (PI3Kdelta)"}}, "note": "Read-outs that look alike come from different tables or passages of the source.", "data": [{"molecule": "COc1cc2ncc3c(c2cc1-c1cn(C)nn1)n(-c1ncccc1F)c(=O)n3C", "note": "[Compound Example 51, 1-(3-Fluoropyridin-2-yl)-7-methoxy-3-methyl-8-(1-methyl-1H-1,2,3-triazol-4-yl)-1,3-dihydroimidazo-[4,5-c]quinolin-2-one]", "values": [{"measurement": "IC50", "setting": "PI3K p110α/p85α (human)", "value": "> 30", "unit": "µM"}, {"measurement": "IC50", "setting": "PI3K p110β/p85α (human); read-out: IC50 (PI3Kbeta)", "value": "> 30", "unit": "µM"}, {"measurement": "IC50", "setting": "PI3K (p120γ) (human)", "value": "> 30", "unit": "µM"}, {"measurement": "IC50", "setting": "[1]", "value": "< 0.01", "unit": "µM"}, {"measurement": "IC50", "setting": "[1]; 10 μM ATP, substrate p53", "value": "< 0.01", "unit": "µM"}, {"measurement": "IC50", "setting": "[2]", "value": "0.2 to 1", "unit": "µM"}, {"measurement": "IC50", "setting": "mTOR (human)", "value": "> 30", "unit": "µM"}, {"measurement": "IC50", "setting": "PI3K p110δ/p85α (human)", "value": "> 30", "unit": "µM"}]}, {"molecule": "COc1cc2ncc3c(c2cc1-c1cn[nH]c1)n(-c1c(F)cncc1F)c(=O)n3C", "note": "[Compound Example 2, 1-(3,5-Difluoropyridin-4-yl)-7-methoxy-3-methyl-8-(1H-pyrazol-4-yl)-1,3-dihydro-imidazo[4,5-c]quinolin-2-one]", "values": [{"measurement": "IC50", "setting": "PI3K p110α/p85α (human)", "value": "> 30", "unit": "µM"}, {"measurement": "IC50", "setting": "PI3K p110β/p85α (human); read-out: IC50 (PI3Kbeta)", "value": "> 30", "unit": "µM"}, {"measurement": "IC50", "setting": "PI3K (p120γ) (human)", "value": "> 30", "unit": "µM"}, {"measurement": "IC50", "setting": "[1]", "value": "< 0.001", "unit": "µM"}, {"measurement": "IC50", "setting": "[1]; 10 μM ATP, substrate p53", "value": "< 0.001", "unit": "µM"}, {"measurement": "IC50", "setting": "[2]", "value": "< 0.2", "unit": "µM"}, {"measurement": "IC50", "setting": "mTOR (human)", "value": "> 5", "unit": "µM"}, {"measurement": "IC50", "setting": "PI3K p110δ/p85α (human)", "value": "> 30", "unit": "µM"}]}, {"molecule": "COc1cc2ncc3c(c2cc1-c1cn(C)nc1C)n(-c1ncccc1F)c(=O)n3C", "note": "[Compound Example 16, 8-(1,3-Dimethyl-1H-pyrazol-4-yl)-1-(3-fluoropyridin-2-yl)-7-methoxy-3-methyl-1,3-dihydroimidazo[4,5-c] quinolin-2-one]", "values": [{"measurement": "IC50", "setting": "PI3K p110α/p85α (human)", "value": "> 30", "unit": "µM"}, {"measurement": "IC50", "setting": "PI3K p110β/p85α (human); read-out: IC50 (PI3Kbeta)", "value": "> 30", "unit": "µM"}, {"measurement": "IC50", "setting": "PI3K (p120γ) (human)", "value": "> 30", "unit": "µM"}, {"measurement": "IC50", "setting": "[1]", "value": "< 0.001", "unit": "µM"}, {"measurement": "IC50", "setting": "[1]; 10 μM ATP, substrate p53", "value": "< 0.001", "unit": "µM"}, {"measurement": "IC50", "setting": "[2]", "value": "< 0.2", "unit": "µM"}, {"measurement": "IC50", "setting": "mTOR (human)", "value": "> 30", "unit": "µM"}, {"measurement": "IC50", "setting": "PI3K p110δ/p85α (human)", "value": "> 30", "unit": "µM"}]}, {"molecule": "COc1cc2ncc3c(c2cc1-c1cn(C)nc1C)n(-c1ncc(F)cc1F)c(=O)n3C", "note": "[Compound Example 11, 1-(3,5-Difluoropyridin-2-yl)-8-(1,3-dimethyl-1H-pyrazol-4-yl)-7-methoxy-3-methyl-1,3-dihydroimidazo[4,5-c]-quinolin-2-one]", "values": [{"measurement": "IC50", "setting": "PI3K p110α/p85α (human)", "value": "> 30", "unit": "µM"}, {"measurement": "IC50", "setting": "PI3K p110β/p85α (human); read-out: IC50 (PI3Kbeta)", "value": "> 30", "unit": "µM"}, {"measurement": "IC50", "setting": "PI3K (p120γ) (human)", "value": "> 30", "unit": "µM"}, {"measurement": "IC50", "setting": "[1]", "value": "< 0.001", "unit": "µM"}, {"measurement": "IC50", "setting": "[1]; 10 μM ATP, substrate p53", "value": "< 0.001", "unit": "µM"}, {"measurement": "IC50", "setting": "[2]", "value": "< 0.2", "unit": "µM"}, {"measurement": "IC50", "setting": "mTOR (human)", "value": "> 30", "unit": "µM"}, {"measurement": "IC50", "setting": "PI3K p110δ/p85α (human)", "value": "> 30", "unit": "µM"}]}, {"molecule": "COc1cc2ncc3c(c2cc1-c1cnn(C)c1)n(-c1ncc(F)cn1)c(=O)n3C", "note": "[Compound Example 36, 1-(5-Fluoropyrimidin-2-yl)-7-methoxy-3-methyl-8-(1-methyl-1H-pyrazol-4-yl)-1,3-dihydroimidazo[4,5-c] quinolin-2-one]", "values": [{"measurement": "IC50", "setting": "PI3K p110α/p85α (human)", "value": "> 30", "unit": "µM"}, {"measurement": "IC50", "setting": "PI3K p110β/p85α (human); read-out: IC50 (PI3Kbeta)", "value": "> 30", "unit": "µM"}, {"measurement": "IC50", "setting": "PI3K (p120γ) (human)", "value": "> 30", "unit": "µM"}, {"measurement": "IC50", "setting": "[1]", "value": "< 0.001", "unit": "µM"}, {"measurement": "IC50", "setting": "[1]; 10 μM ATP, substrate p53", "value": "< 0.01", "unit": "µM"}, {"measurement": "IC50", "setting": "[2]", "value": "< 0.2", "unit": "µM"}, {"measurement": "IC50", "setting": "mTOR (human)", "value": "> 30", "unit": "µM"}, {"measurement": "IC50", "setting": "PI3K p110δ/p85α (human)", "value": "> 30", "unit": "µM"}]}, {"molecule": "COc1cc2ncc3c(c2cc1-c1cn[nH]c1)n(-c1ncc(F)cc1F)c(=O)n3C", "note": "[Example 6]", "values": [{"measurement": "IC50", "setting": "PI3K p110α/p85α (human)", "value": "> 30", "unit": "µM"}, {"measurement": "IC50", "setting": "PI3K p110β/p85α (human)", "value": "> 30", "unit": "µM"}, {"measurement": "IC50", "setting": "PI3K (p120γ) (human)", "value": "> 30", "unit": "µM"}, {"measurement": "IC50", "setting": "[1]", "value": "< 0.001", "unit": "µM"}, {"measurement": "IC50", "setting": "[1]; 10 μM ATP, substrate p53", "value": "< 0.001", "unit": "µM"}, {"measurement": "IC50", "setting": "[2]", "value": "< 0.2", "unit": "µM"}, {"measurement": "IC50", "setting": "mTOR (human)", "value": "> 30", "unit": "µM"}, {"measurement": "IC50", "setting": "PI3K p110δ/p85α (human)", "value": "> 30", "unit": "µM"}]}, {"molecule": "CCn1cc(-c2cc3c(cc2OC)ncc2c3n(-c3ccncc3)c(=O)n2C)cn1", "note": "[compound 62, 8-(1-Ethyl-1H-pyrazol-4-yl)-7-methoxy-3-methyl-1-pyridin-4-yl-1,3-dihydro-imidazo[4,5-c]quinolin-2-one]", "values": [{"measurement": "IC50", "setting": "PI3K p110α/p85α (human)", "value": "> 30", "unit": "µM"}, {"measurement": "IC50", "setting": "PI3K p110β/p85α (human); read-out: IC50 (PI3Kbeta)", "value": "> 30", "unit": "µM"}, {"measurement": "IC50", "setting": "PI3K (p120γ) (human)", "value": "> 30", "unit": "µM"}, {"measurement": "IC50", "setting": "[1]", "value": "< 0.01", "unit": "µM"}, {"measurement": "IC50", "setting": "[1]; 10 μM ATP, substrate p53", "value": "< 0.01", "unit": "µM"}, {"measurement": "IC50", "setting": "[2]", "value": "1 to 2", "unit": "µM"}, {"measurement": "IC50", "setting": "mTOR (human)", "value": "> 30", "unit": "µM"}, {"measurement": "IC50", "setting": "PI3K p110δ/p85α (human)", "value": "> 30", "unit": "µM"}]}, {"molecule": "COc1cc2ncc3c(c2cc1-c1cnn(C)c1)n(-c1cnn(C)c1)c(=O)n3C", "note": "[Compound Example 23, 7-Methoxy-3-methyl-1,8-bis-(1-methyl-1H-pyrazol-4-yl)-1,3-dihydroimidazo[4,5-c] quinolin-2-one]", "values": [{"measurement": "IC50", "setting": "PI3K p110α/p85α (human)", "value": "> 20", "unit": "µM"}, {"measurement": "IC50", "setting": "PI3K p110β/p85α (human); read-out: IC50 (PI3Kbeta)", "value": "> 30", "unit": "µM"}, {"measurement": "IC50", "setting": "PI3K (p120γ) (human)", "value": "> 30", "unit": "µM"}, {"measurement": "IC50", "setting": "[1]", "value": "< 0.01", "unit": "µM"}, {"measurement": "IC50", "setting": "[1]; 10 μM ATP, substrate p53", "value": "< 0.01", "unit": "µM"}, {"measurement": "IC50", "setting": "[2]", "value": "< 0.2", "unit": "µM"}, {"measurement": "IC50", "setting": "mTOR (human)", "value": "> 20", "unit": "µM"}, {"measurement": "IC50", "setting": "PI3K p110δ/p85α (human)", "value": "> 30", "unit": "µM"}]}]}
